Results reported in patent US20060204981A1, “Compositions for modulation of PARP and methods for screening for same” (priority 2005, published 2006).
Where two headings read alike, the source gives them in different places.

Key:
DLD1 cells = assay: MTT cell death assay, DLD1 cells; assay type: cell-based, human
Description: (§1) Cell death was determined by the 3-(4,5-dimethylthiazol-2-yl)-2,5-diphenyl tetrazolium bromide (MTT) assay or by trypan blue exclusion, as indicated. Briefly, HeLa and DLD1 cells were plated in a 96-well plate at 10,000 cells per well, cultured for 24 h in complete growth medium, then treated with various concentrations of β-lapachone for 4 h MTT was added to a final concentration of 0.5 mg/ml, and incubated for 1 hr, followed by assessment of cell viability using a microplate reader at 570 nm. For the trypan blue exclusion assay, HeLa and DLD1 cells were plated in 6-well plate and treated in the same way. They were harvested, and trypan blue dye solution was added to the cell suspension. Total cell counts and viable cell numbers were determined with a hemacytometer. For the PARP inhibition study, cells were […] for 1 h with the PARP inhibitor 3-aminobenzamide (3-AB, 5 mM), and then co-treated with inhibitor and β-lapachone for a further 4 h, followed by MTT assay or trypan blue staining. […] HeLa and DLD1 cells were plated in 96-well plates at 10,000 cells per well, cultured for 24 h in complete growth medium, pretreated with PARP inhibitor 3-AB […] or equal volume of DMSO for 1 h, and then exposed to β-lapachone at various concentrations for a further 4 h, followed by MTT assay.

HeLa cells [1] = assay: NAD depletion assay; assay type: cell-based
Description: HeLa cells were plated at 6×10^5 cells per well (35 mm, 6-well dishes). Eighteen hours after plating, cells were treated with β-lapachone (0, 2, 4 or 8 μM) in growth media (DMEM; 10% FBS) for the time periods indicated (15, 30 and 60 minutes). Following drug treatment cells were washed 2× with PBS. Cells were subsequently lysed in 200 μL NAD lysis buffer (61 mM glycyl-glycine, pH 7.4, 0.1% Triton-X-100). Cellular lysates were clarified by centrifugation at 16,000 g for 10 minutes. Aliquots of clarified lysates were transferred to 96-well plates (25 μL samples in triplicate) for to determine NAD^+ concentrations.
Determination of lysate NAD levels was performed using a modification of the NAD recycling assay described by Ying et al. (PNAS, 98(21):12227-32 (2001)). Briefly, the NAD reaction mixture consisted of 0.1 mM 3-[4,5-dimethylthiazol-2-yl]-2,5-diphenyl-tetrazolium bromide (MTT), 0.9 mM phenazine methosulfate, 13 units/ml alcohol dehydrogenase (from yeast extract, Sigma), 100 mM nicotinamide, and 5.7% ethanol in 61 mM Gly-Gly buffer (pH 7.4). To each aliquot of cellular lysate, 200 μL of reaction mixture was added. Absorbance readings (560 nm) were taken every minute for five minutes. Results were calibrated with NAD^+ standards and were subsequently normalized to protein concentration as determined using the Bio-Rad protein Assay.

PARP [2] = assay: Immunofluorescence analysis with anti-poly(ADP-ribose) antibody, HeLa cells; assay type: cell-based
Description: HeLa and DLD1 cells were grown on coverslips for PARP activity experiments. Cells treated with 4 uM β-lapachone at different time points and fixed with methanol acetone (70/30, v/v) for 10 min at −20° C. Coverslips were air dried and rehydrated in PBS at room temperature for 10 min. Samples were than incubated in blocking buffer (PBS, 5% FBS) for 10 minutes at room temperature in a humid chamber. Cells were incubated overnight at 4° C. with monoclonal anti-poly(ADP-ribose) antibody (I OH, 1:100 dilution). After washing, the cells were incubated for 1 hr at room temperature with a 1:500 dilution of FITC conjugated anti-mouse antibody. For the PARP inhibition study, cells pre-teated for 1 h with the PARP inhibitor 3-aminobenzamide (3-AB, 5 mM), and then co-treated with inhibitor and β-lapachone for a further 10 minutes followed by immunofluorescence staining. Immunofluorescence was evaluated using an immunofluorescence microscope equipped with a CCD camera.
HeLa cells were grown on coverslips for 24 h, then treated with 4 μM β-lapachone at different time points and fixed with methanol acetone (70/30, v/v) for 10 min. Samples were incubated in blocking buffer (5% FBS in PBS) for 10 minutes at room temperature in a humid chamber. […] Immunofluorescence was evaluated using an immunofluorescence microscope equipped with a CCD camera. […]

HeLa cells [3] = assay: MTT cell death assay, HeLa cells; assay type: cell-based; settings: for cell survival percentage: MTT (FIG. 1)
Description: as §1

[4] = system: E2F1 tet-inducible DLD1 cells; assay: Apoptosis in E2F1 tet-inducible DLD1 cells; assay type: cell-based
Description: To investigate E2F1 induced apoptosis, an inducible system was established. Human colon cancer cell lines harboring a mutated p53 gene were used to generate E2F1-inducible cell lines (Rodrigues, et al., PNAS, 87:7555-9 (1990)). […] Under the tetracycline induction conditions, a significant percentage of DLD1 cells undergoing apoptosis were detected at a given time point (10% at day 3; 15% at day 4) as determined by propidium iodide (PI) staining and flow cytometry (FIG. 10B). The apoptosis was further confirmed by assaying morphological changes following expression of E2F1 (FIG. 10C). Similar data was obtained in E2F1-inducible SW480 human colon cancer cells. In addition to proapoptotic function, E2F1 is a necessary transcription factor for cell proliferation (Johnson, D. et al., Nature 365:349-52 (1993); Wu, L. et al. Nature 414:457-62 (2001)). Under these experimental conditions, no significant changes in overall cell cycle distribution were observed.
To further investigate the mechanism of E2F1-induced apoptosis, the role of caspase activation was investigated. Two forms of caspase-3, procaspase and cleaved caspase were detected by western blot analysis. […] Further, it was determined if E2F1-induced, p53 independent apoptosis was affected by inhibiting caspase function with a pancaspase inhibitor. Apoptosis induced by camptothecin, a known caspase-3 activator, was used as a positive control.
Activation of PARP-1 has been implicated in caspase independent apoptosis. It was investigated whether E2F1 induced cell death involved PARP-1 activation. Poly ADP ribosylation (PAR), the functional indicator of PARP-1 activation, was detected by immunoblot with a specific anti-PAR antibody. […] Immunocytochemical staining of PAR further conformed the activity of PARP-1 (FIG. 11B). The nuclear PAR stain was increased after expression of E2F1 for 24 h and reached a plateau at 48 h. To determine if poly ADP ribosylation plays a causal role in E2F1 induced apoptosis, 3′-aminobenzamide (3′-AB), a universal inhibitor of PARP activity, was used.
Protein poly ADP ribosylation is catalysed by members of the poly (ADP-ribose) polymerase family that consists of 18 genes (Amé, J. C., et al., Bioessays 26:882-93 (2004)). The PARP-1 protein is the dominant member in most cells, which contributes the majority of overall poly ADP ribosylation induced by DNA damage (Davidovic, L. et al., Exp Cell Res 268:7-13 (2001)). To distinguish which member of the PARP family was involved in E2F1-induced apoptosis, siRNA technology was utilized to reduce PARP-1 protein levels. A chemically synthesized PARP-1 siRNA pool was electroporated into the DLD1-E2F1 inducible cell line. The PARP-1 protein began to decrease at day 2 and reached the lowest levels at day 4 and gradually recovered from day 6 as shown by western blot (FIG. 12A) and immunocytochemical staining. […] The E2F1-induced apoptosis was compromised following PARP-1 knockdown (P<0.001) (FIG. 12C).

MCF7 cells = assay: NAD+ supplementation experiment, MTT assay; assay type: cell-based; settings: Homo sapiens, 4 h, MTT (FIG. 8), read-out: IC50 (cytotoxicity)
Description: For NAD^+ supplementation experiment, MCF7 cells were plated in 96-well plates at a density of 10,000 cells per well. Sixteen to eighteen hours later cells were pre-treated with […] 3-aminobenzamide, 10 mM NAD+, or vehicle control (all treatments in formulated in growth media: DMEM with 10% fetal bovine serum) for 1 hour at 37° C. Following this incubation, cells (under each pre-incubation treatment) were treated with β-lapachone at indicated concentrations for 4 hours at 37° C. An MTT assay was then performed as described above.

PARP [5] = assay: PARP activity assay in cell lysate; assay type: biochemical, human; settings: various β-lapachone concentrations vs 0 μM control, dose-dependent (FIG. 9)
Description: A cell extract was generated by scraping a 15 cm (˜80% confluent) dish of MCF7 cells into 1.5 ml of PARP buffer (50 mM Tris pH 8.0, 25 mM MgCl2) containing protease inhibitors. The cell suspension was sonicated at 30% amplitude with 3×10 second bursts on ice. The cell lysate was subsequently clarified by centrifugation at 16,000 g for 10 minutes at 4° C. Any remaining insoluble material was removed by passing the clarified lysate through a 5 ml syringe containing a cotton pad-filter. The protein concentration of extracts was typically between […]. PARP in vitro activity was determined using a modification of the PARP in vitro assay from TREVIGEN™. Reactions were comprised of the following: ˜60 μg of cellular protein, 100 μM NAD, 10 μg of histone H1, β-lapachone (at various concentrations) or DMSO control, 25 mM MgCl2, 50 mM Tris-Cl pH 8.0. Reactions were incubated for 10 minutes at room temperature and terminated by the addition of 900 μL of cold 25% trichloroacetic acid. Terminated reactions were incubated on ice for 10 minutes. TCA-precipitated proteins were isolated by passing reaction over glass-fiber filters under vacuum. Filters were subsequently washed three times with 5 ml of 5% TCA followed by 2 washes with cold ethanol. […] The amount of ^32P labeled NAD incorporated into polyribosylated proteins was then determined by liquid scintillation measurement.

## NC(=O)c1cccc(N)c1 [3-aminobenzamide]
DLD1 cells; 3-AB pretreatment 1 h, MTT
  effect on β-lapachone-induced cell death: blocked
HeLa cells [1]; data not shown
  effect on β-lapachone-mediated NAD+ depletion: inhibited
PARP [2]; 5 mM 3-AB 1 h, then 4 μM β-lapachone 10 minutes (FIG. 5)
  effect on β-lapachone induced activation of PARP: blocked
HeLa cells [3]; HeLa cells, 3-AB pretreatment 1 h, MTT
  effect on β-lapachone-induced cell death: blocked
[4]; 3′-AB alone vs control group
  effect on apoptosis of addition alone: no effect on apoptosis
[4]; Homo sapiens, DLD-1, read-out: inhibition of E2F1 induced apoptosis
  inhibition at 5000 µM: > 70%

## CC1(C)CCC2=C(O1)c1ccccc1C(=O)C2=O [β-lapachone, 3,4-dihydro-2,2-dimethyl-2H-naphtho [1,2-b]pyran-5,6-dione]
DLD1 cells; pretreated 1 h with PARP inhibitor 3-AB, then β-lapachone for 4 h, MTT (FIG. 1)
  cell survival percentage: approximately 75%
HeLa cells [1]; 8 μM β-lapachone, within 15 minutes (FIG. 7)
  cellular NAD+ levels: ~20 % of control
HeLa cells [1]; β-lapachone concentrations in excess of the IC50, by 30 minutes (FIG. 7)
  cellular NAD+ levels: less than 50 % of control
PARP [2]; 4 μM β-lapachone, 5 minutes to 2 hours (FIG. 4)
  activation of PARP (anti-poly(ADP-ribose) fluorescence): increases fluorescence
HeLa cells [3]; HeLa cells, pretreated 1 h with PARP inhibitor 3-AB, then β-lapachone for 4 h
  cell survival percentage: ~60%
HeLa cells [3]; HeLa cells, β-lapachone for 4 h without 3-AB
  cell survival percentage: approximately 5%
HeLa cells [3]; Homo sapiens, HeLa, cytotoxicity IC50 quoted in the NAD+ depletion example, cell line not given
  IC50: ~2.8 µM
MCF7 cells; control (no NAD+ supplementation)
  IC50: ~2.7 µM
MCF7 cells; exogenous NAD+ supplementation (10 mM, 1 h pre-treatment)
  IC50: ~6.6 µM
PARP [5]
  PARP activity in cellular lysate: induces enhancement of PARP activity above the basal level

## Z-VAD
[4]; Z-VAD alone
  cytotoxic effects of addition alone: no cytotoxic effects
[4]; Z-VAD at 50 μM (FIG. 10F)
  effect on camptothecin-induced apoptosis: blocked
[4]; Z-VAD at 50 μM, tetracycline induction (FIG. 10F)
  effect on E2F1-induced apoptosis: failed to block
